GI50 and TGI data for 8 molecules are collected here from PubChem BioAssay (NCI).

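Cultured in 96-well plates, cells were exposed to test compound for 48 hours across five concentrations. GI50: concentration for 50% inhibition of growth. TGI: concentration producing complete growth inhibition.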 Some results are limits rather than exact numbers.

What all share (assay): inhibition of tumour cell growth, NCI panel, 48 h
The subject of experiment [1] is M14 melanoma.
Experiment [2] has as its system MOLT-4 leukemia.
For experiment [3], the system named is T-47D breast.
Experiment [4] relates to UO-31 renal.
Experiment [5] relates to DU-145 prostate.
The subject of experiment [6] is U251 CNS.
Experiment [7] has as its system SK-MEL-5 melanoma.
Experiment [8] deals with OVCAR-4 ovarian.
In experiment [9] the test system is NCI-H23 lung.
The test system of experiment [10] is NCI/ADR-RES ovarian.

For the molecule `COc1cc(/C=N\NC(=O)CN2CCN(c3cc4c(cc3F)c(=O)c(C(=O)N/N=C/c3cc(OC)c(OC)c(OC)c3)cn4C3CC3)CC2)cc(OC)c1OC`, the GI50 in experiment [1] was 0.429 µM; in experiment [2], 0.331 µM; in [3], 0.255 µM; in [4], greater than 100 µM; in [5] it was 0.495 µM; in experiment [6], 0.328 µM. Besides, the GI50 is 0.417 µM in [7], 0.379 µM in experiment [8], 0.237 µM in [9] and greater than 100 µM in experiment [10]. For the same molecule, the TGI was greater than 49.5 µM in experiment [1]; greater than 100 µM in experiment [2]; 0.767 µM in [3]; greater than 100 µM in experiment [4]; greater than 20 µM in experiment [5]; greater than 100 µM in experiment [6]. The TGI in [7] is 5.1 µM; in experiment [8], greater than 100 µM; in experiment [9], 0.605 µM; in experiment [10] it was greater than 100 µM.
Turning to `Fc1[nH]nc2ccc([C@@H]3Nc4ccc5[nH]ncc5c4[C@H]4C5CCC(C5)[C@@H]34)cc12` (stereo not given in full), the GI50 in experiment [1] is 0.514 µM; in experiment [2] it was 0.651 µM; in [3], 0.436 µM; in experiment [4] it was 2.83 µM; in experiment [5], 3.22 µM; in experiment [6], 1.02 µM. For the same molecule, the GI50 in experiment [7] is 1.94 µM; in experiment [8], 4.51 µM; in experiment [9], 2.8 µM; in [10] it was 0.576 µM. Moreover, the TGI in experiment [1] was found to be 11.7 µM; in experiment [2] it was 12.7 µM; in experiment [3], 12.9 µM; in experiment [4] it was 14.1 µM; in experiment [5], 14.9 µM; in experiment [6], 13.5 µM. In addition, the TGI in experiment [7] is 12.4 µM; in experiment [8] it was 17.8 µM; in experiment [9] it was 15.9 µM; in [10], 8.99 µM.
Consider `Cc1ccsc1C(=S)Nc1ccc(Cl)c(/C=N/OC(C)(C)C)c1`, for which the TGI in experiment [1] was greater than 100 µM; in experiment [2], greater than 100 µM; in experiment [3], greater than 100 µM; in experiment [4] it was greater than 100 µM; in experiment [5], greater than 100 µM; in [6], 79.3 µM. The TGI in experiment [7], in [8], in experiment [9] and in experiment [10] was greater than 100 µM throughout.
Consider `Nc1ccccc1C#C/C=C\C#Cc1ccccc1OC(F)(F)F`, for which the GI50 is 3.86 µM in experiment [1]; 2.91 µM in experiment [2]; 4.19 µM in experiment [3]; 4.63 µM in experiment [4]; 4.81 µM in experiment [5]; 5.44 µM in [6]. For the same molecule, the GI50 in [7] was 4 µM; in experiment [8], 11.6 µM; in experiment [9], 6.44 µM; in experiment [10], 2.82 µM. Further, the TGI worked out at 17.8 µM in experiment [1]; 24.1 µM in [2]; 74.1 µM in experiment [3]; 22.8 µM in experiment [4]; 29.9 µM in experiment [5]; 22.2 µM in experiment [6]. The TGI in [7] is 15 µM; in experiment [8], 42 µM; in experiment [9], 80.2 µM; in experiment [10], 11.1 µM.
For the molecule `CCOC(=O)Cn1c(C(F)(F)F)nc2nc(Cl)c(Cl)nc21`, the TGI in experiment [1] is greater than 100 µM; in experiment [2], 97.6 µM; in experiment [3], greater than 100 µM; in experiment [4] it was 10.9 µM; in experiment [5], 13.9 µM; in experiment [6], greater than 100 µM. Also, the TGI in experiment [7] was 76.9 µM; in [8], 30.2 µM; in [9], greater than 87.4 µM; in experiment [10], greater than 100 µM.
Regarding `C[N+](C)(C)CC(=O)N/N=C(/CC(=O)CC(C1=C(O)c2ccccc2OC1)c1ccccc1)C(=O)Nc1cccc(Cl)c1` (stereo not given), the TGI in experiment [1], in experiment [2], in experiment [3], in [4], in [5] and in experiment [6] was greater than 100 µM each time. Further, the TGI in experiment [7], in experiment [8], in [9] and in experiment [10] was greater than 100 µM throughout.
`OCc1cc2ccccc2c2c3c(ccc12)OCO3`: the GI50 in experiment [1] is 41.2 µM; in experiment [2], 28.5 µM; in experiment [3], 24.1 µM; in [4], 26.3 µM; in experiment [5], 44 µM; in experiment [6], 28.6 µM. The GI50 in experiment [7] is 20.6 µM; in experiment [8] it was 30.6 µM; in experiment [9], 34.1 µM; in experiment [10], 29.6 µM. For the same molecule, the TGI was determined as 169 µM in experiment [1]; 82.3 µM in experiment [2]; 81.5 µM in experiment [3]; 108 µM in experiment [4]; 170 µM in experiment [5]; 141 µM in [6]. Also, the TGI came out at 59.9 µM in experiment [7], 603 µM in [8], 221 µM in [9] and 126 µM in [10].
As for `OCCN(CCO)c1ncnc2c1ncn2Cc1ccc(CCl)cc1`, the GI50 in experiment [1] is 13.8 µM; in [2], 8.54 µM; in experiment [3], 19.4 µM; in experiment [4] it was 14.9 µM; in [5], 4.42 µM; in [6] it was 15.7 µM. For the same molecule, the GI50 is 10.9 µM in experiment [7], 18.8 µM in experiment [8], 18.3 µM in [9] and 24.7 µM in experiment [10]. For the same molecule, the TGI in [1] came to 28.4 µM; in experiment [2], 52.4 µM; in experiment [3], 36.5 µM; in experiment [4] it was 31 µM; in [5] it was 16.1 µM; in experiment [6], 29.8 µM. In addition, the TGI in experiment [7] amounted to 23.3 µM; in experiment [8], 35.4 µM; in experiment [9] it was 37.1 µM; in experiment [10], 74.1 µM.
